Experimental findings from PubChem BioAssay (NCI) are described below.

Among the test systems are T-47D breast; SF-539 CNS; CAKI-1 renal; NCI-H522 lung; U251 CNS; NCI-H226 lung; HCC-2998 colon; OVCAR-3 ovarian; ACHN renal; IGROV1 ovarian.
Common to all, as to experiment: DTP human tumour cell line panel, 48 h

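All cell lines were grown in 96-well plates and treated with compound for 48 hours. Abbreviation: GI50, concentration required for 50% inhibition of growth. TGI marks complete inhibition of growth.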 A value given as a limit tells only on which side of the number the result lay.

On to `COCCNc1ccc2c3c(cccc13)C(=O)N(CCN(C)C)C2=O`, for which the GI50 (usually the concentration giving 50% growth inhibition) in the assay on T-47D breast was 4.87 µM; in the assay on SF-539 CNS, 7.04 µM; in the assay with CAKI-1 renal it was 4.49 µM; with NCI-H522 lung, 4.06 µM; in the assay with U251 CNS, 8.71 µM; with NCI-H226 lung, 5.01 µM. Moreover, the GI50 in the assay with HCC-2998 colon is 10.1 µM; in the assay with OVCAR-3 ovarian, 8.65 µM; with ACHN renal, 4.64 µM. For the same compound, the concentration for total growth inhibition (TGI) (in general, the concentration at which net growth stops) with T-47D breast was 23.8 µM; in the assay on SF-539 CNS, above 25 µM; in the assay on CAKI-1 renal, 10.1 µM; in the assay with NCI-H522 lung it was 12.4 µM; with U251 CNS it was above 25 µM; with NCI-H226 lung, 17 µM. For the same compound, the TGI in the assay on HCC-2998 colon, in the assay on OVCAR-3 ovarian and in the assay with ACHN renal was above 25 µM each time.

Regarding `C=C1C(=O)O[C@H]2[C@H]1CC/C(C=Nc1c(N)cc(C(F)(F)F)cc1C(F)(F)F)=C\CC[C@@]1(C)O[C@@H]21`, the GI50 is 0.55 µM in the assay with T-47D breast; 1.49 µM in the assay with CAKI-1 renal; 1.66 µM in the assay on NCI-H522 lung; 1.56 µM in the assay with U251 CNS; 1.43 µM in the assay on NCI-H226 lung; 1.69 µM with HCC-2998 colon. Besides, the GI50 with OVCAR-3 ovarian is 1.41 µM; in the assay with ACHN renal, 1.26 µM. Besides, the TGI worked out at 2.64 µM with T-47D breast; 2.98 µM in the assay on CAKI-1 renal; 4.13 µM in the assay with NCI-H522 lung; 2.98 µM in the assay with U251 CNS; 4.11 µM with NCI-H226 lung; 3.3 µM in the assay with HCC-2998 colon. Moreover, the TGI turned out to be 2.86 µM with OVCAR-3 ovarian and 2.68 µM with ACHN renal.

Regarding `Cc1cc(Nc2ncc3c(n2)N(C)C(=O)N(c2cc(NC(=O)c4cccc(C(F)(F)F)c4)ccc2C)C3)n(C)n1`, the 50% growth inhibitory concentration (GI50) was below 0.01 µM in the assay with IGROV1 ovarian; 0.0438 µM with T-47D breast; 0.0621 µM with SF-539 CNS; 0.0182 µM with CAKI-1 renal; 0.0317 µM in the assay on U251 CNS; 0.0387 µM with NCI-H226 lung. Further, the values for the GI50 in the assay on HCC-2998 colon and in the assay on ACHN renal were 0.541 µM and 0.0281 µM, respectively. Further, the TGI is 0.0524 µM with IGROV1 ovarian; 2.24 µM in the assay on T-47D breast; 0.68 µM in the assay with SF-539 CNS; 0.0709 µM with CAKI-1 renal; above 31.6 µM with U251 CNS; above 100 µM in the assay on NCI-H226 lung. Further, the TGI in the assay with HCC-2998 colon was above 46.4 µM.

In the case of `COc1ccc2cc(C(=O)/C=C/c3ccc(N(C)C)cc3)ccc2c1`, the GI50 with IGROV1 ovarian is 47.8 µM; in the assay on T-47D breast, above 100 µM; in the assay with CAKI-1 renal, 67.5 µM; with NCI-H522 lung, 39.1 µM; with U251 CNS, 58.9 µM; with OVCAR-3 ovarian it was above 100 µM. The GI50 in the assay on ACHN renal was 81.4 µM. Further, the TGI in the assay on IGROV1 ovarian, in the assay on T-47D breast, in the assay on CAKI-1 renal, with NCI-H522 lung, with U251 CNS and with OVCAR-3 ovarian was above 100 µM each time. In the assay with ACHN renal, this compound gave a TGI above 100 µM.

In the case of `Cc1ccc(NC(=O)c2cc3ccccc3c(N=Nc3cc(S(=O)(=O)O)ccc3O)c2O)c(C)c1`, the TGI in the assay with IGROV1 ovarian, in the assay with T-47D breast, with CAKI-1 renal, with NCI-H522 lung, in the assay on U251 CNS and with NCI-H226 lung was above 100 µM each time. Besides, the values for the TGI in the assay with OVCAR-3 ovarian and with ACHN renal were above 100 µM and 23 µM, respectively.

As for `[Cl][Hg][c]1ccc(Cl)s1`, the GI50 in the assay on IGROV1 ovarian is 1.62 µM; in the assay with T-47D breast, 0.908 µM; in the assay on SF-539 CNS, 2.03 µM; in the assay on CAKI-1 renal it was 1.69 µM; in the assay with NCI-H522 lung, 0.114 µM; in the assay on U251 CNS, 0.91 µM. Besides, the values for the GI50 in the assay with NCI-H226 lung, with HCC-2998 colon and in the assay with ACHN renal were 4.71 µM, 11.9 µM and 1.78 µM, respectively. In addition, the TGI in the assay with IGROV1 ovarian worked out at 3.67 µM; in the assay on T-47D breast, 3.37 µM; with SF-539 CNS, 4.46 µM; with CAKI-1 renal, 3.29 µM; with NCI-H522 lung it was 0.325 µM; with U251 CNS, 2.71 µM. Moreover, the results for the concentration for total growth inhibition (TGI) with NCI-H226 lung, in the assay on HCC-2998 colon and in the assay with ACHN renal were 28.6 µM, 26.4 µM and 3.33 µM, respectively.

As to `Clc1ccc(Nc2ccnc(N3CCN(c4ccnc5cc(Cl)ccc45)CC3)n2)cc1`, the GI50 in the assay with IGROV1 ovarian is 3.82 µM; in the assay on T-47D breast, 1.99 µM; in the assay with CAKI-1 renal, 2.47 µM; in the assay on NCI-H522 lung it was 1.65 µM; in the assay with U251 CNS, 2.84 µM; in the assay with NCI-H226 lung it was 3.96 µM. The GI50 in the assay with HCC-2998 colon was 3.39 µM; in the assay with OVCAR-3 ovarian, 2.93 µM. Moreover, the TGI in the assay on IGROV1 ovarian is above 100 µM; in the assay on T-47D breast, 8.53 µM; in the assay on CAKI-1 renal it was 15.6 µM; in the assay with NCI-H522 lung, 4.94 µM; with U251 CNS, 11.1 µM; in the assay with NCI-H226 lung, 23.4 µM. Further, the total growth inhibition concentration (TGI) came to 9.63 µM in the assay on HCC-2998 colon and 9.87 µM in the assay with OVCAR-3 ovarian.

`O=C(NC(=O)c1ccccc1[N+](=O)[O-])Nc1ccc(Oc2ncc(Cl)cn2)c([N+](=O)[O-])c1`: the TGI is above 71.8 µM with IGROV1 ovarian; above 100 µM in the assay with T-47D breast; 8.38 µM in the assay on SF-539 CNS; above 100 µM in the assay on CAKI-1 renal; 1.68 µM in the assay with NCI-H522 lung; above 88.6 µM with U251 CNS. Further, the TGI in the assay with NCI-H226 lung is 1.07 µM; with OVCAR-3 ovarian, above 7.67 µM; with ACHN renal, above 100 µM.

Take `COc1ccc2c(c1)oc(=O)c1cc(OC)ccc12`: the GI50 in the assay on IGROV1 ovarian, in the assay with T-47D breast, with SF-539 CNS, in the assay with CAKI-1 renal, with NCI-H522 lung and in the assay on U251 CNS was above 100 µM throughout. The GI50 in the assay with NCI-H226 lung, with HCC-2998 colon and in the assay with OVCAR-3 ovarian was above 100 µM throughout. The TGI with IGROV1 ovarian, in the assay on T-47D breast, in the assay on SF-539 CNS, in the assay on CAKI-1 renal, in the assay with NCI-H522 lung and with U251 CNS was above 100 µM throughout. The TGI with NCI-H226 lung, with HCC-2998 colon and in the assay with OVCAR-3 ovarian was above 100 µM each time.
